Results reported in US12509460B2 (Skyhawk Therapeutics, Inc., priority 2019, dated 2025).
Read-outs that look alike come from different tables or passages of the source.

Experiments:
[1] = Quantitative splicing assay (HTT), qPCR; format: cell-based, human; conditions: Homo sapiens, GM04724, 24 h, GM04724 lymphoblasts, read-out: HTT Splicing: E49-50 EC50
Outline: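 TaqMan qPCR on cell-lysate cDNA quantifies cryptic-exon inclusion from HTT intron 49. Lymphoblasts plated at 50,000 cells/well had received compound for 24 h, 0.15 nM-2.5 uM range, 0.1% DMSO.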

[2] = system: mHTT protein in GM04724 (CAG 70/20) Huntington's disease patient lymphoblast cells; assay: mHTT protein assay, 2B7-MW1 assay via Mesoscale Discovery (MSD); format: cell-based, human
Outline: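 Signal from the 2B7-MW1 antibody pair on MSD, rising with polyQ length and smaller HTT fragments, measured mHTT after 48 h compound exposure (0.6 nM–10 μM) in GM04724 cells. A parallel replicate plate gave CellTiter Glo viability.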

[3] = system: SMN FL and SMN Δ7 in spinal muscular atrophy (SMA) patient fibroblasts (GM03813, Coriell); assay: Quantitative splicing assay (SMN), qPCR; format: cell-based, human; conditions: Homo sapiens, Fibroblast, 24 h, 24 h, read-out: SMN2 Splicing FL EC50
Procedure: Spinal muscular atrophy (SMA) patient fibroblasts (GM03813, Coriell) are plated in 96-well plates at 50,000 cells/well. […] Treated cells are lysed and cDNA synthesized using the Fast Advanced Cells-to-Ct kit (Thermofisher A35378) according to the manufacturer's instructions. 2 μL of each cDNA are used in qPCR reactions. […] Reactions are run in a Quant Studio 6 qPCR instrument with default settings.

[4] = system: SMN protein in spinal muscular atrophy (SMA) patient fibroblasts (GM03813, Coriell); assay: SMN protein assay, Mesoscale Discovery (MSD); format: cell-based, human; conditions: for EC50: read-out: SMN2 protein EC50
Outline: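 Absolute SMN levels were quantified by MSD against an SMN protein standard curve (1 μg/ml to 19.5 pg/ml) run on each plate. Samples were lysates of GM03813 patient fibroblasts (7000 cells/well) treated 48 hours with compound doses from 2.5 μM down to 0.6 nM.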

MDR1 (P-gp) = assay: Blood-brain-barrier (BBB) penetration potential via MDCK-MDR1 permeability assay; conditions: dog; for Papp A→B at 120 min, 5 μM: MDCK-MDR1, pH 7.4, MDCK-MDR1: Papp A-B; for Papp B→A at 120 min, 5 μM: MDCK-MDR1, pH 7.4, MDCK-MDR1: Papp B-A
[5] = system: MDR1-MDCK cell monolayers; assay: as above
MDR1 = assay: as above; conditions: dog, MDCK-MDR1, pH 7.4, MDCK-MDR1: Efflux
[6] = GM04724 (CAG 70/20) Huntington's disease patient lymphoblasts
[7] = SMA patient fibroblasts (GM03813)
[8] = SMA patient fibroblasts (GM03813), 48 hours
[9] = GM04724 Huntington's disease patient lymphoblasts
[10] = SMA patient fibroblasts GM03813, 24 h, qPCR
[11] = SMA patient fibroblasts GM03813, 48 hours, MSD

| SMILES | EC50 [1] | EC50 [2, 6] | EC50 [3, 7] | SMN2 protein EC50 [4, 8] | Papp A→B at 120 min, 5 μM (MDR1 (P-gp); A-B) | Papp B→A at 120 min, 5 μM (MDR1 (P-gp); B-A) | MDCK-MDR1: % Recov A-B ([5]; A-B) | MDCK-MDR1: % Recov B-A ([5]; B-A) | efflux ratio at 120 min, 5 μM (MDR1) | EC50 ([1]; qPCR) | EC50 [2, 9] | EC50 [3, 10] | EC50 [4, 11] | Papp A→B at 120 min, 5 μM (MDR1 (P-gp); A-B direction) | Papp B→A at 120 min, 5 μM (MDR1 (P-gp); B-A direction) | MDCK-MDR1: % Recov A-B ([5]; A-B direction) | MDCK-MDR1: % Recov B-A ([5]; B-A direction) | efflux ratio at 120 min, 5 μM (MDR1; efflux ratio) | EC50 [4, 8] |
| --- | --- | --- | --- | --- | --- | --- | --- | --- | --- | --- | --- | --- | --- | --- | --- | --- | --- | --- | --- |
| Cc1nc2cc(-c3ccc(N(C)[C@H]4C[C@@H]5CC[C@H]([C@H]4F)N5C)nn3)c(O)cc2c(=O)n1C [Compound 105B, 7-(6-(((1R,2R,3S,5S)-2-fluoro-8-methyl-8-azabicyclo[3.2.1]octan-3-yl)(methyl)amino)pyridazin-3-yl)-6-hydroxy-2,3-dimethylquinazolin-4(3H)-one] | 51 to 100 nM | 16 to 50 nM | 101 to 500 nM | E (501 ≤ E ≤ 10.000) | 1.28 ×10⁻⁶ cm/s | 64.3 ×10⁻⁶ cm/s | 114% | 119% | 50 |  |  |  |  |  |  |  |  |  |  |
| CN(c1ccc(-c2cc3ncn(C)c(=O)c3cc2O)nn1)[C@H]1C[C@@H]2CC[C@@H](N2)[C@H]1F [Compound 51B, 7-(6-(((1R,2R,3S,5S)-2-fluoro-8-azabicyclo[3.2.1]octan-3-yl)(methyl)amino)pyridazin-3-yl)-6-hydroxy-3-methylquinazolin-4(3H)-one] |  |  |  |  |  |  |  |  |  | 0.01 to 15 nM | 0.01 to 15 nM | 0.01 to 15 nM | 0.01 to 15 nM | 0.91 ×10⁻⁶ cm/s | 50.3 ×10⁻⁶ cm/s | 88% | 90% | 55 |  |
| CN(c1ccc(-c2ccc(-c3ccn(C)n3)cc2O)nn1)[C@H]1C[C@@H]2CC[C@@H](N2)[C@H]1F (single isomer, unassigned) [Compound 36B] |  |  |  |  |  |  |  |  |  | 0.01 to 15 nM | 0.01 to 15 nM | 0.01 to 15 nM | 0.01 to 15 nM | 5.87 ×10⁻⁶ cm/s | 41.8 ×10⁻⁶ cm/s | 72% | 79% | 7 |  |
| Cc1cc(=O)c2cc(-c3ccc(N(C)[C@@H]4C[C@H]5CC[C@H](N5)[C@@H]4F)nn3)c(O)cc2o1 [Compound 50A, 6-(6-(((1S,2S,3R,5R)-2-fluoro-8-azabicyclo[3.2.1]octan-3-yl)(methyl)amino)pyridazin-3-yl)-7-hydroxy-2-methyl-4H-chromen-4-one] |  |  |  |  |  |  |  |  |  | 0.01 to 15 nM | 0.01 to 15 nM | 16 to 50 nM | 0.01 to 15 nM | 2.16 ×10⁻⁶ cm/s | 68.3 ×10⁻⁶ cm/s | 85% | 92% | 32 |  |
| CN(c1ccc(-c2cc3cncnc3cc2O)nn1)[C@H]1C[C@@H]2CC[C@@H](N2)[C@H]1F [Compound 75B, 6-(6-(((1R,2R,3S,5S)-2-fluoro-8-azabicyclo[3.2.1]octan-3-yl)(methyl)amino)pyridazin-3-yl)quinazolin-7-ol] |  |  |  |  |  |  |  |  |  | 51 to 100 nM | 51 to 100 nM | 16 to 50 nM | 16 to 50 nM | 2.44 ×10⁻⁶ cm/s | 50.5 ×10⁻⁶ cm/s | 88% | 90% | 21 |  |
| C#Cc1ccc(-c2ccc(N(C)[C@@H]3C[C@H]4CC[C@H](N4)[C@@H]3F)nn2)c(O)c1 [Compound 10A, 5-ethynyl-2-(6-(((1S,2S,3R,5R)-2-fluoro-8-azabicyclo[3.2.1]octan-3-yl)(methyl)amino)pyridazin-3-yl)phenol] |  |  |  |  |  |  |  |  |  | 0.01 to 15 nM | 0.01 to 15 nM | 0.01 to 15 nM | 0.01 to 15 nM | 11.6 ×10⁻⁶ cm/s | 19 ×10⁻⁶ cm/s | 55% | 67% | 2 |  |
| CN(c1ccc(-c2ccc(-n3ccnn3)cc2O)nn1)[C@H]1C[C@@H]2CC[C@@H](N2)[C@H]1F [Compound 61B, 2-(6-(((1R,2R,3S,5S)-2-fluoro-8-azabicyclo[3.2.1]octan-3-yl)(methyl)amino)pyridazin-3-yl)-5-(1H-1,2,3-triazol-1-yl)phenol] |  |  |  |  |  |  |  |  |  | 0.01 to 15 nM | 0.01 to 15 nM | 0.01 to 15 nM | 0.01 to 15 nM | 3.79 ×10⁻⁶ cm/s | 45.8 ×10⁻⁶ cm/s | 98% | 93% | 12 |  |
| CN(c1ccc(-c2cc3ccn(C)c(=O)c3cc2O)nn1)[C@H]1C[C@@H]2CC[C@@H](N2)[C@H]1F [Compound 84B, 6-(6-(((1R,2R,3S,5S)-2-fluoro-8-azabicyclo[3.2.1]octan-3-yl)(methyl)amino)pyridazin-3-yl)-7-hydroxy-2-methylisoquinolin-1(2H)-one] |  |  |  |  |  |  |  |  |  | 0.01 to 15 nM | 0.01 to 15 nM | 0.01 to 15 nM | 0.01 to 15 nM | 1.06 ×10⁻⁶ cm/s | 50.9 ×10⁻⁶ cm/s | 112% | 76% | 48 |  |
| Cc1cc(=O)c2cc(O)c(-c3ccc(N(C)[C@@H]4C[C@H]5CC[C@H](N5)[C@@H]4F)nn3)cc2o1 [Compound 49A, 7-(6-(((1S,2S,3R,5R)-2-fluoro-8-azabicyclo[3.2.1]octan-3-yl)(methyl)amino)pyridazin-3-yl)-6-hydroxy-2-methyl-4H-chromen-4-one] |  |  |  |  |  |  |  |  |  | 16 to 50 nM | 16 to 50 nM | 0.01 to 15 nM | 0.01 to 15 nM | 0.72 ×10⁻⁶ cm/s | 30.7 ×10⁻⁶ cm/s | 93% | 78% | 43 |  |
| O=C(c1cc2cc(O)c(-c3ccc(N(C4CC4)[C@H]4C[C@@H]5CC[C@@H](N5)[C@H]4F)nn3)cc2o1)N1CCC1 [Compound 57B, azetidin-1-yl(6-(6-(cyclopropyl((1R,2R,3S,5S)-2-fluoro-8-azabicyclo[3.2.1]octan-3-yl)amino)pyridazin-3-yl)-5-hydroxybenzofuran-2-yl)methanone] |  |  |  |  |  |  |  |  |  | 16 to 50 nM | 0.01 to 15 nM | 16 to 50 nM | 0.01 to 15 nM | 0.69 ×10⁻⁶ cm/s | 48.5 ×10⁻⁶ cm/s | 99% | 95% | 71 |  |
| CN(c1ccc(-c2cc3c(=O)n(C)ccc3cc2O)nn1)[C@@H]1C[C@H]2CC[C@@H]([C@@H]1F)N2C [Compound 98A, 7-(6-(((1S,2S,3R,5R)-2-fluoro-8-methyl-8-azabicyclo[3.2.1]octan-3-yl)(methyl)amino)pyridazin-3-yl)-6-hydroxy-2-methylisoquinolin-1(2H)-one] | 101 to 500 nM | 101 to 500 nM | 101 to 500 nM |  | 4.11 ×10⁻⁶ cm/s | 64.7 ×10⁻⁶ cm/s | 86% | 105% | 16 |  |  |  |  |  |  |  |  |  | 16 to 50 nM |
| CN(c1ccc(-c2ccc(C#N)cc2O)nn1)[C@@H]1C[C@H]2CCC[C@H](N2)[C@@H]1F [Compound 39A, 4-(6-(((1S,2S,3R,5R)-2-fluoro-9-azabicyclo[3.3.1]nonan-3-yl)(methyl)amino)pyridazin-3-yl)-3-hydroxybenzonitrile] |  |  |  |  |  |  |  |  |  | 16 to 50 nM | 16 to 50 nM | 16 to 50 nM | 0.01 to 15 nM | 8.1 ×10⁻⁶ cm/s | 40.5 ×10⁻⁶ cm/s | 83% | 76% | 5 |  |
